Like-named read-outs stand apart in the source and are kept apart here.
Assays:
TGase = TGase (Cavia porcellus, UniProt P08587); assay type: biochemical; conditions: for TG level: level with DMSO control designated as 100
Experimental: An enzyme reaction solution (0.1 ml) (100 mM HEPES-NaOH, pH 7.5, 1 mM CaCl2, 20 μM monodansyl cadaverine, 0.05 mg/ml N,N-dimethylcasein, 5 μg/ml TGase) was introduced into wells of a 96-well plate (Nunc, 96 Well Black Plate with Clear Bottom). A test compound was added in concentrations of 0.3, 1.0, 3.0, 10, and 30 μM. The solution and the compound were sufficiently mixed while preventing foaming. The plate was set in the fluorescence drug screening system FDSS 3000 (Hamamatsu Photonics K.K.). TGase-inhibiting activity of the compound was calculated by assaying changes in fluorescence wavelength (at 340 nm) per unit time. […] The assay level at which TGase activity decreased by half in the presence of the test compound was designated as TG 50.
Hereafter, the numerals in parentheses written after the TG level, the SOCE level, and the IICR level correspond to the test compound concentrations. The number following the name of each title compound used in the Examples below represents a compound ID number designated arbitrarily by the present inventors.

[1] = system: IICR (IP3 induced calcium release) in CHO cells; assay: Assay of IICR (IP3 induced calcium release)-inhibiting action; assay type: cell-based, Chinese hamster
Method in brief: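 CHO cell medium replaced with calcium-containing BSS; compound added 1 min later, then 10 μM ATP after a further 2 min. Percent inhibition of the ATP-evoked rise in intracellular calcium determined at each compound concentration.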

“2-(N-2-hydroxy-3-aminopropyl)aminoethyl-5-bromo-2-thienylketone [Example 8853]” was tested, and the “TG-activity-inhibiting action or protein-crosslinking-inhibiting action (in words)” value (TGase) was “strongly” and the “IICR-inhibiting activity compared with SOCE-inhibiting activity (in words)” value [1] was “higher than SOCE-inhibiting activity”.
In the case of “2-(N-t-butylbenzyl)aminoethyl-5-bromo-2-thiophenylketone [Example 8778]”, the “TG-activity-inhibiting action or protein-crosslinking-inhibiting action (in words)” value (TGase) is reported as “strongly” and the “IICR-inhibiting activity compared with SOCE-inhibiting activity (in words)” value [1] is reported as “higher than SOCE-inhibiting activity”.
With `C=CC(=O)c1ccc2c(F)cccc2c1` [Example 8257, 1-fluoro-6-acryloylnaphthalene] the “TG-activity-inhibiting action or protein-crosslinking-inhibiting action (in words)” value (TGase) was “high”.
For `C=CC(=O)c1ccc(Br)cc1` [Example 8266, 1-acryloyl-4-bromobenzene], the “TG-activity-inhibiting action or protein-crosslinking-inhibiting action (in words)” value (TGase) was “high”.
In the case of `C=CC(=O)C(c1ccccc1)c1ccccc1` [Example 8269, Acryloyldiphenylmethane], the “TG-activity-inhibiting action or protein-crosslinking-inhibiting action (in words)” value (TGase) is reported as “high”.
`CC(C)N(CCC(=O)c1ccc(Cc2ccccc2)cc1)Cc1ccccc1` [Example 8285, 2-(N-isopropylbenzyl)aminoethyl-4-benzylphenylketone] was tested, and the “TG-activity-inhibiting action or protein-crosslinking-inhibiting action (in words)” value (TGase) was “strongly” and the “IICR-inhibiting activity compared with SOCE-inhibiting activity (in words)” value [1] was “higher than SOCE-inhibiting activity”.
`C=CC(=O)c1cccc2ccccc12` [Example 8293, 1-acryloylnaphthalene] was tested, and the “TG-activity-inhibiting action or protein-crosslinking-inhibiting action (in words)” value (TGase) was “high”.
`CC(C)N(CCC(=O)c1ccccn1)Cc1ccccc1` [Example 8305, 2-(N-isopropylbenzyl)aminoethyl-2-pyridylketone] was tested, and the “TG-activity-inhibiting action or protein-crosslinking-inhibiting action (in words)” value (TGase) was “strongly” and the “IICR-inhibiting activity compared with SOCE-inhibiting activity (in words)” value [1] was “higher than SOCE-inhibiting activity”.
In the case of `CC(C)N(CCC(=O)c1ccco1)Cc1ccccc1` [Example 8370, 2-(N-isopropylbenzyl)aminoethyl-2-furylketone], the “TG-activity-inhibiting action or protein-crosslinking-inhibiting action (in words)” value (TGase) is reported as “strongly” and the “IICR-inhibiting activity compared with SOCE-inhibiting activity (in words)” value [1] is reported as “higher than SOCE-inhibiting activity”.
For `O=C(CCN(CCO)Cc1ccccc1)c1cnccn1` [Example 8397, 2-(N-benzylhydroxyethyl)aminoethyl-2-pyrazylketone], the “TG-activity-inhibiting action or protein-crosslinking-inhibiting action (in words)” value (TGase) was “strongly” and the “IICR-inhibiting activity compared with SOCE-inhibiting activity (in words)” value [1] was “higher than SOCE-inhibiting activity”.
`Cc1ccc(C(=O)CCN(CCO)Cc2ccccc2)o1` [Example 8404, 2-(N-benzylhydroxyethyl)aminoethyl-5-methyl-2-furylketone] was tested, and the “TG-activity-inhibiting action or protein-crosslinking-inhibiting action (in words)” value (TGase) was “strongly” and the “IICR-inhibiting activity compared with SOCE-inhibiting activity (in words)” value [1] was “higher than SOCE-inhibiting activity”.
In the case of `Cc1ccc(C(=O)CCN(Cc2ccccc2)C(C)(C)C)o1` [Example 8405, 2-(N-benzyl-t-butyl)aminoethyl-5-methyl-2-furylketone], the “TG-activity-inhibiting action or protein-crosslinking-inhibiting action (in words)” value (TGase) is reported as “strongly” and the “IICR-inhibiting activity compared with SOCE-inhibiting activity (in words)” value [1] is reported as “higher than SOCE-inhibiting activity”.
With `CCN(CCC(=O)c1ccco1)Cc1ccccc1` [Example 8412, 2-(N-benzylethyl)aminoethyl-2-furylketone] the “TG-activity-inhibiting action or protein-crosslinking-inhibiting action (in words)” value (TGase) was “strongly” and the “IICR-inhibiting activity compared with SOCE-inhibiting activity (in words)” value [1] was “higher than SOCE-inhibiting activity”.
With `CC(C)(C)N(CCC(=O)c1cccs1)Cc1ccccc1` [Example 8638, 2-(N-t-butylbenzyl)aminoethyl-2-thiophenylketone] the “TG-activity-inhibiting action or protein-crosslinking-inhibiting action (in words)” value (TGase) was “strongly” and the “IICR-inhibiting activity compared with SOCE-inhibiting activity (in words)” value [1] was “higher than SOCE-inhibiting activity”.
`CCc1nccnc1C(=O)CCN(Cc1ccccc1)C(C)C` [Example 8656, 2-(N-isopropylbenzyl)aminoethyl-2-(3-ethyl)-pyrazylketone] was tested, and the “TG-activity-inhibiting action or protein-crosslinking-inhibiting action (in words)” value (TGase) was “strongly” and the “IICR-inhibiting activity compared with SOCE-inhibiting activity (in words)” value [1] was “higher than SOCE-inhibiting activity”.
Methyl vinylketone [Example 57] showed a TG level (TGase; test compound 3 μmol) of 84, a TG level (TGase; test compound 10 μmol) of 94 and a TG level (TGase; test compound 30 μmol) of 37.

Reference: patent US8937091B2 (Japan Science and Technology Agency, priority 2009, dated 2015)
